# From patent US20150238401A1, “PROPYL-PHENYL-ETHER DERIVATIVE, AND MELANOGENESIS INHIBITOR, SKIN-LIGHTENING AGENT, ANTIMICROBIAL AGENT AND COSMETIC CONTAINING SAID PROPYL-PHENYL-ETHER DERIVATIVE” (SEIWA KASEI COMPANY, LIMITED, priority 2012, published 2015)
# Key:
# [1] = test system: B16 melanoma 4A5 cell; assay: Melanogenesis inhibiting test (theophylline-induced melanine production); assay type: cell-based; conditions: B16 mouse melanoma 4A5, theophylline 1.0 mmol/L, 3 days culture, N=4; for IC40: B16 melanoma 4A5, 72 h, read-out: Judgment: sample concentration showing the melanogenesis inhibiting ratio of 40% or more
# Protocol: As a test for a skin-lightening effect, evaluation of the action of B16 melanoma 4A5 cell on theophylline-induced melanine production was carried out on propyl-phenyl-ether derivatives of the present invention, according to the following procedure. (1) B16 mouse melanoma 4A5 strain was sowed onto a 48-well plate at a cell density of 8.0×10^3 cells/well. (2) Culturing was performed for 24 hours with Dulbecco's Modified Eagle's medium (manufactured by SIGMA. Hereinafter, abbreviated as D-MEM) containing 10% fetal bovine serum (manufactured by Nichirei Biosciences Inc.). […] (3) After culturing for 3 days in the co-existence of a sample, the medium was removed using an aspirator. Then, after distilled water was added, cells were broken by an ultrasonic wave. (4) Thereafter, the amount of protein was determined using BCA protein assay kit (manufactured by Thermo Fisher Scientific Inc.), and the produced amount of melanine was measured by an alkali solubilizing method described below. [Alkali Solubilizing Method] To the cell-destructed solution was added sodium hydroxide so as to give a final concentration of 1 mol/L and the mixture was dissolved by heating (60° C., 30 minutes), then, the absorbance at 450 nm was measured using a micro plate reader. The melanine amount was calculated from a calibration curve made using synthetic melanine (SIGMA) as a standard. The melanine amount per unit protein was calculated by dividing the melanine amount by the protein amount. (5) The melanine production suppressing rate was calculated according to the following formula. Melanine production suppressing rate (%)=[1−(A−B)/(C−B)]×100 [wherein, A represents the melanine amount per unit protein (g/g) in adding a sample, B represents the melanine amount per unit protein (g/g) in the normal group, and C represents the melanine amount per unit protein (g/g) in the control group.] In the above, Normal group is a case of theophylline (−; no addition) and sample (−; no addition), and Control group is a case of theophylline (+; addition) and sample (−; no addition). (6) Determination of Skin-Lightening Effect The amount of a sample required for adjusting the melanogenesis inhibiting ratio to 40% or more was measured, and the effect was evaluated by the following criteria based on the measured amount. The measurement was conducted at N=4 (4 wells per sample). The skin-lightening effect is expressed as described below based on the sample concentration showing the melanogenesis inhibiting ratio of 40% or more. The measurement was conducted at N=4.
# [2] = test system: Propionibacterium acnes (JCM6415); assay: Anti-acne test (growth in GAM bouillon medium, OD620); assay type: cell-based; conditions: sample final concentration 0.1%, 37° C., anaerobic, 48 hours
# Protocol: Propionibacterium acnes (JCM6415: ATCC strain) was transplanted to GAM bouillon medium (manufactured by Nissui Pharmaceutical Co., Ltd.), and cultured at 37° C. under anaerobic condition for 24 hours. Thereafter, it was diluted with GAM bouillon medium so that the final bacterium concentration was OD620=0.1, and this was used as a test bacterium solution. In examples, the propyl-phenyl-ether derivative was weighed so that the final concentration was 0.1%, dissolved in GAM bouillon medium, then, filter-sterilization was performed. The resultant solution was used as a sample solution. The test bacterium solution was added in an amount of 30 μL and the sample solution was added in an amount of 120 μL to a 96-well microplate (manufactured by Sumitomo Bakelite Co., Ltd.), then, immediately, the micro plate and AnaeroPack-KENKI (manufactured by Mitsubishi Gas Chemical Co., Inc.) were placed into an anaerobic jar (manufactured by Mitsubishi Gas Chemical Co., Inc.), and culture was carried out at 37° C. under anaerobic condition for 48 hours. Thereafter, OD620 was measured by a microplate reader. The same test was conducted using methylparaben, phenoxyethanol and sodium ascorbate as comparative compounds.
# The results are classified by the following criteria and shown in Table 5-Table 7. • Δ: OD620 is 0.6 or more • ◯: OD620 is 0.3-0.6 • ⊚: OD620 is 0.3 or less
Structure (SMILES),IC40 [1] [µM],Judgment: OD620 after culture [2],Judgment: sample concentration showing the melanogenesis inhibiting ratio of 40% or more [1]
CCOC(CO)COc1ccc(C(C)(C)C)cc1 (stereo not drawn) [2-O-ethyl-1-hydroxy-3-(4′-tert-butylphenoxy)propyl],≤ 30,⊚⊚,–
"CC(O)COc1ccc(C(C)(C)C)cc1 (stereo not drawn) [Example 2, 2-hydroxy-3-(4′-tert-butylphenoxy)propyl]",30 to 100,⊚ (⊚: OD620 is 0.3 or less),–
"CCOCC(O)COc1ccc(C(C)CC)cc1 (stereo not drawn) [Example 4, 1-O-ethyl-2-hydroxy-3-(4′-sec-butylphenoxy)propyl]",–,⊚ (⊚: OD620 is 0.3 or less),⊚ (30 to 100 μmol/L: ⊚)
"CC(C)(C)c1ccc(OCC(O)COc2ccc(C(C)(C)C)cc2)cc1 [Example 8, 2-hydroxy-1,3-di-(4′-tert-butylphenoxy)propyl]",≤ 30,⊚⊚,–
"CC(C)(C)c1ccc(OCC(O)COc2ccc(O)cc2)cc1 (stereo not drawn) [Example 9, 1-(4″-hydroxyphenoxy)-2-hydroxy-3-(4′-tert-butylphenoxy)propyl]",30 to 100,⊚ (⊚: OD620 is 0.3 or less),–
"CC(C)(C)c1ccc(OCC(O)COCC(O)COc2ccc(C(C)(C)C)cc2)cc1 (stereo not drawn) [Example 10, di[2-hydroxy-3-(4′-tert-butylphenoxy)propyl]ether]",100 to 300,⊚ (⊚: OD620 is 0.3 or less),–
"CCCCc1ccc(OCC(O)CO)cc1 (stereo not drawn) [Example 12, 1,2-di-hydroxy-3-(4′-n-butylphenoxy)propyl]",30 to 100,◯ (◯: OD620 is 0.3-0.6),–
"CC(C)c1ccc(OCC(O)CO)cc1 (stereo not drawn) [Example 13, 1,2-di-hydroxy-3-(4′-isopropylphenoxy)propyl]",30 to 100,⊚ (⊚: OD620 is 0.3 or less),–
"CCc1ccc(OCC(O)CO)cc1 (stereo not drawn) [Example 14, 1,2-di-hydroxy-3-(4′-ethylphenoxy)propyl]",100 to 300,⊚ (⊚: OD620 is 0.3 or less),–
"CCC(C)(C)c1ccc(OCC(O)CO)cc1 (stereo not drawn) [Example 15, 1,2-di-hydroxy-3-(4′-tert-amylphenoxy)propyl]",≤ 30,⊚⊚,–
"CC(C)(c1ccccc1)c1ccc(OCC(O)CO)cc1 (stereo not drawn) [Example 16, 1,2-di-hydroxy-3-(4′-α-cumylphenoxy)propyl]",30 to 100,⊚ (⊚: OD620 is 0.3 or less),–
"CC(C)(C)CC(C)(C)c1ccc(OCC(O)CO)cc1 (stereo not drawn) [Example 17, 1,2-di-hydroxy-3-[4′-(1″,1″,3″,3″-tetramethylbutyl)phenoxy]propyl]",≤ 30,⊚⊚,–
"CC(C)(C)c1ccc(OCCCO)cc1 [Example 18, 1-hydroxy-3-(4′-tert-butylphenoxy)propyl]",30 to 100,⊚ (⊚: OD620 is 0.3 or less),–
"CCC(C)c1cccc(C(C)CC)c1OCC(O)CO (stereo not drawn) [Example 19, 1,2-di-hydroxy-3-(2′,6′-di-sec-butylphenoxy)propyl]",≤ 30,⊚⊚,–
"CC(C)(C)c1ccc(OCC(O)CO)c(C(C)(C)C)c1 (stereo not drawn) [Example 20, 1,2-di-hydroxy-3-(2′,4′-di-tert-butylphenoxy)propyl]",≤ 30,⊚⊚,–
"Cc1cc(OCC(O)CO)c(C(C)(C)C)cc1C(C)(C)C (stereo not drawn) [Example 21, 1,2-di-hydroxy-3-(2′,4′-di-tert-butyl-5′-methylphenoxy)propyl]",≤ 30,⊚⊚,–
"Cc1cc(C(C)(C)C)c(OCC(O)CO)c(C(C)(C)C)c1 (stereo not drawn) [Example 22, 1,2-di-hydroxy-3-(2′,6′-di-tert-butyl-4′-methylphenoxy) propyl]",≤ 30,⊚⊚,–

Structure (SMILES),IC40 [1] [µM],Judgment: OD620 after culture [2],Judgment: sample concentration showing the melanogenesis inhibiting ratio of 40% or more [1]
"COc1ccc(OCC(O)CO)c(C(C)(C)C)c1 (stereo not drawn) [Example 23, 1,2-di-hydroxy-3-(2′-tert-butyl-4′-methoxylphenoxy)propyl]",30 to 100,⊚ (⊚: OD620 is 0.3 or less),–
"COc1ccc(OCC(O)CO)cc1C(C)(C)C (stereo not drawn) [Example 24, 1,2-di-hydroxy-3-(3′-tert-butyl-4′-methoxylphenoxy)propyl]",30 to 100,⊚ (⊚: OD620 is 0.3 or less),–
CC(C)(c1ccc(OCC(O)CO)cc1)c1ccc(OCC(O)CO)cc1 (stereo not drawn) [Example 25],≤ 30,⊚⊚,–
"CCCCC(CC)COCC(O)COc1ccccc1C(C)CC (stereo not drawn) [Example 26, 1-O-(2″-ethylhexyl)-2-hydroxy-3-(2′-sec-butylphenoxy) propyl]",30 to 100,⊚ (⊚: OD620 is 0.3 or less),–
"CCOCC(O)COc1ccccc1C(C)CC (stereo not drawn) [Example 27, 1-O-ethyl-2-hydroxy-3-(2′-sec-butylphenoxy)propyl]",30 to 100,⊚ (⊚: OD620 is 0.3 or less),–
"CCOCC(O)COc1ccc(C(C)(C)c2ccccc2)cc1 (stereo not drawn) [Example 28, 1-O-ethyl-2-hydroxy-3-(4′-α-cumylphenoxy)propyl]",≤ 30,⊚⊚,–
"CCOCC(O)COc1ccc(C(C)C)c(C)c1 (stereo not drawn) [Example 29, 1-O-ethyl-2-hydroxy-3-(3′-methyl-4′-isoproylphenoxy)propyl]",≤ 30,⊚⊚,–
"CCOCC(O)COc1c(C(C)CC)cccc1C(C)CC (stereo not drawn) [Example 30, 1-O-ethyl-2-hydroxy-3-(2′,6′-di-sec-butylphenoxy)propyl]",≤ 30,⊚⊚,–
"Cc1cc(OCC(O)CO)ccc1C(C)C (stereo not drawn) [Example 31, 1,2-di-hydroxy-3-(3′-methyl-4′-isoproylphenoxy)propyl]",≤ 30,⊚⊚,–
"CCOCC(O)COc1ccc(C(C)(C)c2ccc(OCC(O)COCC)cc2)cc1 (stereo not drawn) [Example 32, 2,2-bis[4′-(1″-O-ethyl-2″-hydroxypropoxy)phenyl]propane]",≤ 30,⊚⊚,–
"CCOCC(O)COc1ccc(C(C)(C)CC(C)(C)C)cc1 (stereo not drawn) [Example 33, 1-O-ethyl-2-hydroxy-3-[4′-(1″,1″,3″,3″-tetramethylbutyl)phenoxy]propyl]",30 to 100,⊚ (⊚: OD620 is 0.3 or less),–
"COC(=O)c1ccc(O)cc1 [Methylparaben, reference compound]",–,Δ (Δ: OD620 is 0.6 or more),–
"O=C1O[C@H]([C@@H](O)CO)C([O-])=C1O.[Na+] [Sodium Ascorbate, reference compound]",–,Δ (Δ: OD620 is 0.6 or more),–
"CCCOc1ccc(C(C)(C)C)cc1 [Synthesis Example 1, 1-(4′-tert-butylphenoxy)propyl, reference compound]",≥ 300,Δ (Δ: OD620 is 0.6 or more),–
"CCOc1ccc(C(C)(C)C)cc1 [Synthesis Example 2, 1-(4′-tert-butylphenoxy)ethyl, reference compound]",≥ 300,Δ (Δ: OD620 is 0.6 or more),–
"OCC(O)COc1ccccc1 (stereo not drawn) [Synthesis Example 3, 1,2-di-hydroxy-3-phenoxypropyl, reference compound]",≥ 300,Δ (Δ: OD620 is 0.6 or more),–
"Cc1ccccc1OCC(O)CO (stereo not drawn) [Synthesis Example 4, 1,2-di-hydroxy-3-(2′-methylphenoxy)propyl, reference compound]",≥ 300,Δ (Δ: OD620 is 0.6 or more),–
